Measured values from ChEMBL document CHEMBL1140189, “Lignans from the roots of Saururus chinensis” (J Nat Prod, 2008).
pIC50: −log10 of the molar value.

Experiments:
Format in all cases: functional, cell-based
HepG2 = experiment: Cytotoxicity against human HEPG2 cells by MTT assay
HT-29 = experiment: Cytotoxicity against human HT29 cells by MTT assay
MCF7 = experiment: Cytotoxicity against human MCF7 cells by MTT assay

SMILES | pIC50 (HepG2) | pIC50 (HT-29) | pIC50 (MCF7)
C[C@@H]([C@H](C)[C@H](O)c1ccc2c(c1)OCO2)[C@H](O)c1ccc2c(c1)OCO2 [SAUCERNEOL I] | < 4.00 | 4.68 | < 4.00
COc1cc([C@H]2O[C@H](c3ccc4c(c3)OCO4)[C@H](C)[C@H]2C)ccc1O[C@H](C)[C@@H](O)c1ccc2c(c1)OCO2 [SAUCERNEOL F] | 4.96 | 5.00 | < 4.00
CC(Cc1cc2c(cc1O)OCO2)[C@@H](C)[C@H](O)c1ccc2c(c1)OCO2 (single isomer, unassigned) [SAUCERNEOL H] | 4.21 | 4.28 | 4.14
COc1ccc([C@H](O)[C@@H](C)Oc2ccc([C@H]3O[C@H](c4ccc5c(c4)OCO5)[C@H](C)[C@H]3C)cc2OC)cc1OC [SAUCERNEOL D] | 4.80 | 4.89 | < 4.00
CC(Cc1cc2c(cc1O)OCO2)C(C)C(=O)c1ccc2c(c1)OCO2 (stereo not drawn) [SAUCERNEOL G] | 4.21 | 4.26 | 4.19
CC[C@@]1(O)C(=O)OCc2c1cc1n(c2=O)Cc2cc3ccccc3nc2-1 [CAMPTOTHECIN] | 6.52 | 5.70 | 5.00
